Patent US20240228489A1, “POSITIVE ALLOSTERIC MODULATORS OF THE MUSCARINIC ACETYLCHOLINE RECEPTOR M1” (Vanderbilt University, priority 2021, published 2024)
pEC50: −log10 of the molar value.

What was measured:
human mAChR M1 [1] = target: T1, human mAChR M1 (Homo sapiens, UniProt P11229); test: mAChR M1 cell-based functional assay (calcium mobilization), agonist mode: compound alone, Emax relative to acetylcholine maximum; details: for Agonist Activity Human M1 EC50 / pEC50: human mAChR M1; for Emax: relative to the maximum for acetylcholine
T1 sequence (P11229 1-460): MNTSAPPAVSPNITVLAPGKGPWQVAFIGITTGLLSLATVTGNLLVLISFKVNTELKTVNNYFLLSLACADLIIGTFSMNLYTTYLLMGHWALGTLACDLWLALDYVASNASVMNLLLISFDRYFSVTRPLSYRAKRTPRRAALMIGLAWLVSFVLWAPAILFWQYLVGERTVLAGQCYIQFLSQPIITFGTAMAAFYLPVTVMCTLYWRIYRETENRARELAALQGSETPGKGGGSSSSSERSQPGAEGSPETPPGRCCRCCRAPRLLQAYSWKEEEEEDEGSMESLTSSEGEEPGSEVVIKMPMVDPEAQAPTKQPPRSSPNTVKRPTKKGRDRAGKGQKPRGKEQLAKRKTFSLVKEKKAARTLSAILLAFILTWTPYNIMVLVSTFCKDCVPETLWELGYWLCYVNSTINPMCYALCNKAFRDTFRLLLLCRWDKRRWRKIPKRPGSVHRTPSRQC
Procedure, shortened: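 CHO-K1 cells stably expressing hM1 were loaded with Fluo-4 AM, and calcium flux was read as fluorescence ratio. Compound was added alone from an 11-point 1:3 curve, and the agonist response was fitted with a four-parameter logistic. Emax is expressed relative to the acetylcholine maximum.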

human mAChR M1 [2] = target: T1, human mAChR M1; test: mAChR M1 cell-based functional assay (calcium mobilization), PAM mode: increase in the EC20 acetylcholine response
Procedure, shortened: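 CHO-K1 cells stably expressing hM1, Fluo-4 loaded, read by FDSS calcium flux at 1 Hz. Compound (11-point 1:3 CRC) added at 4 s, EC20 acetylcholine at 144 s, EC80 at 230 s. PAM activity taken as concentration-dependent increase in EC20 ACh response, fitted by four-parameter logistic for EC50/Emax.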

Agonist Activity Human M1 EC50 (human mAChR M1 [1]) | Emax (human mAChR M1 [1]) [%] | pEC50 (human mAChR M1 [2]) | Emax (human mAChR M1 [2]) [%] | pEC50 (human mAChR M1 [1]) | SMILES
Inactive | 9 | 6.49 | 81 |  | [2H]C1([2H])c2ncccc2C(=O)N1Cc1c(F)cc(-c2ccc(OCCOC)c3nn(C)cc23)cc1Cl [Compound 170, 6-(2-chloro-6-fluoro-4-(7-(2-methoxyethoxy)-2-methyl-2H-indazol-4-yl)benzyl)-6,7-dihydro-5H-pyrrolo[3,4-b]pyridin-5-one-7,7-d2]
 | 31 | 6.47 | 81 | ≤ 5.00 | [2H]C1([2H])c2ncccc2C(=O)N1Cc1c(F)cc(-c2ccc(O[C@@H](C)COC)c3nn(C)cc23)cc1F [Compound 171, (S)-6-(2,6-difluoro-4-(7-((1-methoxypropan-2-yl)oxy)-2-methyl-2H-indazol-4-yl)benzyl)-6,7-dihydro-5H-pyrrolo[3,4-b]pyridin-5-one-7,7-d2]
 | 27 | 6.45 | 82 | ≤ 5.00 | [2H]C1([2H])c2ncccc2C(=O)N1Cc1c(F)cc(-c2ccc(OC[C@@H](C)OC)c3nn(C)cc23)cc1F [Compound 172, (R)-6-(2,6-difluoro-4-(7-(2-methoxypropoxy)-2-methyl-2H-indazol-4-yl)benzyl)-6,7-dihydro-5H-pyrrolo[3,4-b]pyridin-5-one-7,7-d2]
Inactive | 2 | 5.87 | 82 |  | [2H]C1([2H])c2ncccc2C(=O)N1Cc1c(F)cc(-c2ccc(OC3CN(C(=O)OC(C)(C)C)C3)c3nn(C)cc23)cc1F [Compound 173, tert-butyl 3-((4-(3,5-difluoro-4-((5-oxo-5,7-dihydro-6H-pyrrolo[3,4-b]pyridin-6-yl-7,7-d2)methyl)phenyl)-2-methyl-2H-indaazol-7-yl)oxy)azetidine-1-carboxylate]
 | 26 | 6.71 | 86 | 5.09 | [2H]C1([2H])c2ncccc2C(=O)N1Cc1c(F)cc(-c2ccc(OCC3(C#N)CC3)c3nn(C)cc23)cc1F [Compound 174, 1-(((4-(3,5-difluoro-4-((5-oxo-5,7-dihydro-6H-pyrrolo[3,4-b]pyridin-6-yl-7,7-d2)methyl)phenyl)-2-methyl-2H-indazol-7-yl)oxy)methyl)cyclopropane-1-carbonitrile]
 | 12 | 6.08 | 86 | ≤ 5.00 | [2H]C1([2H])c2ncccc2C(=O)N1Cc1ccc(-c2ccc(OC[C@@H](C)OC)c3nn(C)cc23)cc1F [Compound 175, (R)-6-(2-fluoro-4-(7-(2-methoxypropoxy)-2-methyl-2H-indazol-4-yl)benzyl)-6,7-dihydro-5H-pyrrolo[3,4-b]pyridin-5-one-7,7-d2]
Inactive | 2 | 5.88 | 60 |  | [2H]C1([2H])c2ncccc2C(=O)N1Cc1ccc(-c2ccc(OC3CN(C(=O)OC(C)(C)C)C3)c3nn(C)cc23)cc1F [Compound 176, tert-butyl 3-((4-(3-fluoro-4-((5-oxo-5,7-dihydro-6H-pyrrolo[3,4-b]pyridin-6-yl-7,7-d2)methyl)phenyl)-2-methyl-2H-indazol-7-yl)oxy)azetidine-1-carboxylate]
 | 27 | 6.70 | 82 | 5.21 | [2H]C1([2H])c2ncccc2C(=O)N1Cc1c(C)cc(-c2ccc(OCCOC)c3nn(C)cc23)cc1F [Compound 177, 6-(2-fluoro-4-(7-(2-methoxyethoxy)-2-methyl-2H-indazol-4-yl)-6-methylbenzyl)-6,7-dihydro-5H-pyrrolo[3,4-b]pyridin-5-one-7,7-d2]
Inactive | 9 | 6.56 | 79 |  | [2H]C1([2H])c2ncccc2C(=O)N1Cc1ccc(-c2ccc(OCC3(C#N)CC3)c3nn(C)cc23)cc1F [Compound 178, 1-(((4-(3-fluoro-4-((5-oxo-5,7-dihydro-6H-pyrrolo[3,4-b]pyridin-6-yl-7,7-d2)methyl)phenyl)-2-methyl-2H-indazol-7-yl)oxy)methyl)cyclopropane-1-carbonitrile]
Inactive | 1 | 5.95 | 55 |  | [2H]C1([2H])c2ncccc2C(=O)N1Cc1c(F)cc(-c2ccc(OCC3CN(C(=O)OC(C)(C)C)C3)c3nn(C)cc23)cc1F [Compound 179, tert-butyl 3-(((4-(3,5-difluoro-4-((5-oxo-5,7-dihydro-6H-pyrrolo[3,4-b]pyridin-6-yl-7,7-d2)methyl)phenyl)-2-methyl-2H-indazol-7-yl)oxy)methyl)azetidine-1-carboxylate]
Inactive | 9 | 6.53 | 85 |  | [2H]C1([2H])c2ncccc2C(=O)N1Cc1c(F)cc(-c2ccc(OC3CN(C(C)C)C3)c3nn(C)cc23)cc1F [Compound 180, 6-(2,6-difluoro-4-(7-((1-isopropylazetidin-3-yl)oxy)-2-methyl-2H-indazol-4-yl)benzyl)-6,7-dihydro-5H-pyrrolo[3,4-b]pyridin-5-one-7,7-d2]
Inactive | 9 | 6.32 | 82 |  | [2H]C1([2H])c2ncccc2C(=O)N1Cc1c(F)cc(-c2ccc(SC)c3nn(C)cc23)cc1F [Compound 181, 6-(2,6-difluoro-4-(2-methyl-7-(methylthio)-2H-indazol-4-yl)benzyl)-6,7-dihydro-5H-pyrrolo[3,4-b]pyridin-5-one-7,7-d2]
Inactive | 3 | 6.23 | 87 |  | [2H]C1([2H])c2ncccc2C(=O)N1Cc1c(F)cc(-c2ccc(S(C)(=N)=O)c3nn(C)cc23)cc1F (centres unmarked) [Compound 182, 6-(2,6-difluoro-4-(2-methyl-7-(S-methylsulfonimidoyl)-2H-indazol-4-yl)benzyl)-6,7-dihydro-5H-pyrrolo[3,4-b]pyridin-5-one-7,7-d2]
 | 13 | 6.27 | 86 | ≤ 5.00 | [2H]C1([2H])c2ncccc2C(=O)N1Cc1c(F)cc(-c2ccc(OC3CC3)c3nn(C([2H])([2H])[2H])cc23)cc1F [Compound 183, 6-(4-(7-cyclopropoxy-2-(methyl-d3)-2H-indazol-4-yl)-2,6-difluorobenzyl)-6,7-dihydro-5H-pyrrolo[3,4-b]pyridin-5-one-7,7-d2]
Inactive | 5 | 6.29 | 87 |  | [2H]C1([2H])c2ncccc2C(=O)N1Cc1c(F)cc(-c2ccc(OC3CN(CCCC)C3)c3nn(C)cc23)cc1F [Compound 184, 6-(4-(7-((1-butylazetidin-3-yl)oxy)-2-methyl-2H-indazol-4-yl)-2,6-difluorobenzyl)-6,7-dihydro-5H-pyrrolo[3,4-b]pyridin-5-one-7,7-d2]
Inactive | 6 | 6.14 | 74 |  | [2H]C1([2H])c2ncccc2C(=O)N1Cc1c(F)cc(-c2ccc(OCSC)c3nn(C)cc23)cc1F [Compound 185, 6-(2,6-difluoro-4-(2-methyl-7-((methylthio)methoxy)-2H-indazol-4-yl)benzyl)-6,7-dihydro-5H-pyrrolo[3,4-b]pyridin-5-one-7,7-d2]
 | 15 | 6.41 | 72 | 5.14 | [2H]C1([2H])c2ncccc2C(=O)N1Cc1c(F)cc(-c2ccc(OCS(C)(=O)=O)c3nn(C)cc23)cc1F [Compound 186, 6-(2,6-difluoro-4-(2-methyl-7-((methylsulfonyl)methoxy)-2H-indazol-4-yl)benzyl)-6,7-dihydro-5H-pyrrolo[3,4-b]pyridin-5-one-7,7-d2]
Inactive | 1 | 6.33 | 67 |  | [2H]C1([2H])c2ncccc2C(=O)N1Cc1c(F)cc(-c2ccc(OC3CN(S(=O)(=O)C(C)C)C3)c3nn(C)cc23)cc1F [Compound 187, 6-(2,6-difluoro-4-(7-((1-(isopropylsulfonyl)azetidin-3-yl)oxy)-2-methyl-2H-indazol-4-yl)benzyl)-6,7-dihydro-5H-pyrrolo[3,4-b]pyridin-5-one-7,7-d2]
Inactive | 9 | 5.57 | 71 |  | [2H]C1([2H])c2ncccc2C(=O)N1Cc1c(F)cc(-c2ccnc3nn(C([2H])([2H])[2H])cc23)cc1F [Compound 188, 6-(2,6-difluoro-4-(2-(methyl-d3)-2H-pyrazolo[3,4-b]pyridin-4-yl)benzyl)-6,7-dihydro-5H-pyrrolo[3,4-b]pyridin-5-one-7,7-d2]
Inactive | 3 | 6.20 | 72 |  | [2H]C1([2H])c2ncccc2C(=O)N1Cc1c(F)cc(-c2ccc(OC3CN(C4CCCCC4)C3)c3nn(C)cc23)cc1F [Compound 189, 6-(4-(7-((1-cyclohexylazetidin-3-yl)oxy)-2-methyl-2H-indazol-4-yl)-2,6-difluorobenzyl)-6,7-dihydro-5H-pyrrolo[3,4-b]pyridin-5-one-7,7-d2]
